Values joined by “and” are separate entries in the source; they are usually repeats but may differ in a detail not shown here. Equal entries are not always repeated.
Tests used:
XPO1 (Jurkat XPO1^WT) = biological target: T1, XPO1 (Jurkat XPO1^WT) (Homo sapiens, UniProt O14980); assay: RanBP1 immunofluorescence (XPO1-mediated nuclear export) in wild-type Jurkat cells; format: cell-based; conditions: 3 h; for Subcellular localization of RanBP1, wild-type Jurkat: compound at 4 μM; for IC50: nuclear export of RanBP1 cargo, wild-type Jurkat, mean ± SD of two independent experiments, read-out: IC50 XPO1 inhibition Jurkat XPO1^WT
T1 construct: RanBP1 immunofluorescence staining was performed on both wild type and mutant XPO1^C528S Jurkat cells; endogenous in cells; host or cells: wild-type Jurkat leukemia cells
Procedure: (§1) The effect of the mutation on the activity of the inhibitors was assessed by the visualization of the subcellular localization of the XPO1 cargo RanBP1.
(§2) Stably transfected HeLa NLSSV40-AcGFP-NESPKI were cultured as described in Vercruysse et al.
(§3) Cells were harvested at 400× g, washed in PBS and then transferred into an 8-well µ-Slide (Ibidi) pretreated with 0.1% (w/v) poly-L-lysine (Sigma). Cells were allowed to adhere to the slides and then subsequently fixed (4% PFA in PBS), washed and permeabilized (0.2% Triton X-100 in PBS). Further immunofluorescence staining was then performed according to standard procedures. Employed antibodies were rabbit anti-RanBP1 (ab97659, Abcam, Cambridge, UK) at a 1:500 dilution and secondary Alexa Fluor 488 goat anti-rabbit antibody (A11008, Invitrogen, ThermoFisher Scientific). Cell nuclei were counterstained with DAPI, and the samples were imaged by confocal microscopy on a Leica TCS SP5 confocal microscope (Leica Microsystems, Weitzlar, Germany), employing a HCX PL APO 63× (NA 1.2) water immersion objective. Subsequently, fluorescence was read on an ArrayScan XTI High Content Reader (Thermo Fisher Scientific, Waltham, MA, USA). Nuclear and cytoplasmic compartments were segmented, and their average pixel intensities in the green channel were quantitated similarly as for the XPO1 phenotypic reporter assay.

[1] = system: panel of cancer cell lines; assay: Antiproliferative activity, panel of cancer cell lines; format: cell-based; conditions: for Fold less potent than KPT-330 (antiproliferative IC50): all cell lines tested; for Antiproliferative activity, in words: panel of cancer cell lines
Procedure: (§4) Adherent cell lines HCT-116, NCI-H460 and Hap-1 cells were seeded at a density between 500 and 1500 cells per well in 384-well tissue culture plates (Greiner). After overnight incubation, cells were treated with different concentrations of the test compounds. Suspension cell lines HL-60, K-562, Z-138 and DND-41 were seeded at densities ranging from 2500 to 5500 cells per well in 384-well culture plates containing the test compounds at the same concentration points.

HCT-116 cells = assay: Cell proliferation assay (IncuCyte confluence), HCT-116; format: cell-based; conditions: Homo sapiens; HCT-116 colorectal carcinoma; 72 h; mean of two independent experiments ± SEM; read-out: IC50 antiproliferative activity HCT-116
Procedure: (§5) Cancer cell lines HCT-116, NCI-H460, HL-60, K-562 and Z-138 were acquired from the American Type Culture Collection (ATCC, Manassas, VA, USA). The DND-41 cell line was purchased from the Deutsche Sammlung von Mikroorganismen und Zellkulturen (DSMZ Leibniz-Institut, Brunswick, Germany), and the HAP-1 cell line was ordered from Horizon Discovery (Horizon Discovery Group, Water Beach, UK). All cell lines were cultured as recommended by the suppliers. Culture media were purchased from Gibco Life Technologies and supplemented with 10% fetal bovine serum (HyClone, GE Healthcare Life Sciences, Chicago, Illinois, USA).
as §4

XPO1 = biological target: T2, XPO1 (Homo sapiens, UniProt O14980); assay: XPO1 phenotypic reporter assay in HeLa NLSSV40-AcGFP-NESPKI cells; format: cell-based; conditions: HeLa GFP reporter cell line; 2 h treatment; mean ± SEM of two independent experiments; read-out: XPO1 inhibition IC50
T2 construct: the compounds were assayed in a reporter cell line based on the subcellular localization of a XPO1-dependent GFP reporter cargo protein; endogenous in cells; host or cells: HeLa cells stably transfected with the NLSSV40-AcGFP-NESPKI reporter (only the reporter cargo is transfected, not XPO1)
Procedure: as §2
To study the XPO1-mediated nuclear export, stably transfected HeLa NLSSV40-AcGFP-NESPKI reporter cells were seeded at 8000 cells per well in 96-well all clear tissue culture plates (TPP). After overnight incubation, cells were treated with different doses of compound or solvent (DMSO) for 2 h and then fixed and counterstained with DAPI. Fluorescence was read on an ArrayScan XTI High Content Reader (Thermo Fisher Scientific, Waltham, MA, USA). Nuclear and cytoplasmic compartments were segmented and their average pixel intensities in the green channel were quantitated employing the HCS Studio software. Genedata Screener software was used for dose-response curve fitting, and calculation of EC50 values was based on the percentage of cells having a predominant nuclear localisation (ratio of nuclear to cytoplasmic signal equal or above 1.4) of the reporter construct. Compounds were tested in two independent experiments and represented as mean ± SEM.

NCI-H460 cells = assay: Cell proliferation assay (IncuCyte confluence), NCI-H460; format: cell-based; conditions: Homo sapiens; NCI-H460 lung carcinoma; 72 h; mean of two independent experiments ± SEM; read-out: IC50 antiproliferative activity NCI-H460
Procedure: as §5, §4

Hap-1 cells = assay: Cell proliferation assay (IncuCyte confluence), Hap-1; format: cell-based; conditions: Homo sapiens, HAP1; Hap-1 chronic myeloid leukemia; 72 h; mean of two independent experiments ± SEM; read-out: IC50 antiproliferative activity Hap-1
Procedure: as §5, §4

DND-41 cells = assay: Cell proliferation assay (IncuCyte confluence), DND-41; format: cell-based; conditions: DND41; DND-41 acute lymphoblastic leukemia; 72 h; mean of two independent experiments ± SEM; read-out: IC50 antiproliferative activity DND-41
Procedure: as §5, §4

HL-60 cells = assay: Cell proliferation assay (IncuCyte confluence), HL-60; format: cell-based; conditions: Homo sapiens; HL-60 acute myeloid leukemia; 72 h; mean of two independent experiments ± SEM; read-out: IC50 antiproliferative activity HL-60
Procedure: as §5, §4

[2] = biological target: T3, XPO1^C528S (Jurkat XPO1^C528S) (Homo sapiens, UniProt O14980, C528S); assay: RanBP1 immunofluorescence (XPO1-mediated nuclear export) in mutant XPO1^C528S Jurkat cells; format: cell-based; conditions: for Subcellular localization of RanBP1, mutant XPO1^C528S Jurkat: compound at 4 μM; for Subcellular localization of RanBP1, mutant XPO1^C528S Jurkat / IC50: 3 h; for XPO1 inhibitory activity against Jurkat XPO1^C528S, in words / IC50: mutant XPO1^C528S Jurkat; for IC50: nuclear export of RanBP1 cargo, mean ± SD of two independent experiments, read-out: IC50 XPO1 inhibition Jurkat XPO1^C528S
T3 construct: CRISPR/Cas9 genome editing of the Jurkat cell line was performed as in Neggers et al. [43] to generate a XPO1^C528S mutant cell line; endogenous in cells; host or cells: Jurkat cells genome-edited by CRISPR/Cas9 at the XPO1 locus (XPO1^C528S)
Procedure: as §1, §2, §3

K-562 cells = assay: Cell proliferation assay (IncuCyte confluence), K-562; format: cell-based; conditions: Homo sapiens, K562; K-562 chronic myeloid leukemia; 72 h; mean of two independent experiments ± SEM; read-out: IC50 antiproliferative activity K-562
Procedure: as §5, §4

T2 sequence (O14980 whole entry): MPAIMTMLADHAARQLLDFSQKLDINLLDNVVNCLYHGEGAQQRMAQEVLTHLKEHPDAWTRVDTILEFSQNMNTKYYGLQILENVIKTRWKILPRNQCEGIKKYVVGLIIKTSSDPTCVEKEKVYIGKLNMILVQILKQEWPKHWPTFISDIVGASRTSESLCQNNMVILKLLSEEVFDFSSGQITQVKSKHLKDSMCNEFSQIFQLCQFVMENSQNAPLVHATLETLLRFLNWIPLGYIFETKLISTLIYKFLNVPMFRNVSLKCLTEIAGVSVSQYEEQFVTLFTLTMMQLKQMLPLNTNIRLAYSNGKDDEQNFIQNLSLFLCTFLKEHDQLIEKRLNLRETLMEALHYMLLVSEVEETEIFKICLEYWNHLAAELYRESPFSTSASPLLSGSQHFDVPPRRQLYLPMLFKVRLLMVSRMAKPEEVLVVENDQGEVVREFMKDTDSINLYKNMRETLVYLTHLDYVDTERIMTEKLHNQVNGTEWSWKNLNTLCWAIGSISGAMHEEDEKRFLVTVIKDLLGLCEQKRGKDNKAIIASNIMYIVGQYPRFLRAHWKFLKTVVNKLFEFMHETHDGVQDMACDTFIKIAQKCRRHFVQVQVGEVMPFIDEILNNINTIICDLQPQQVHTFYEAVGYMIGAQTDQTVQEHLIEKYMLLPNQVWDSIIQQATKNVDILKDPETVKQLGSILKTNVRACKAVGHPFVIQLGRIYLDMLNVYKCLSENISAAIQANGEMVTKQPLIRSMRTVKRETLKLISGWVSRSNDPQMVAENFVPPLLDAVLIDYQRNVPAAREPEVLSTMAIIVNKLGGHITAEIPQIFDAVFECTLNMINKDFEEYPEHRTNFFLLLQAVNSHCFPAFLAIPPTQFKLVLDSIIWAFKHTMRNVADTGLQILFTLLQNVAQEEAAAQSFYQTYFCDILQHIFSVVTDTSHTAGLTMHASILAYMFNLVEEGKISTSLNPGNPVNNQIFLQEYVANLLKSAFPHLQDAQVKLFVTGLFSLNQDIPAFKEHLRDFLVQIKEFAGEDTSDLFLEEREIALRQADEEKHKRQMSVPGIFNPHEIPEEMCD
T3 sequence (O14980 whole entry C528S): as the sequence (O14980 whole entry) above, with C528S counted along it

SMILES | Subcellular localization of RanBP1, wild-type Jurkat (XPO1 (Jurkat XPO1^WT)) | IC50 (XPO1 (Jurkat XPO1^WT)) | Fold less potent than KPT-330 (antiproliferative IC50) [1] | Antiproliferative activity, in words [1] | IC50 (HCT-116 cells) | IC50 (XPO1) | IC50 (NCI-H460 cells) | IC50 (Hap-1 cells) | IC50 (DND-41 cells) | IC50 (HL-60 cells) | melting point | Subcellular localization of RanBP1, mutant XPO1^C528S Jurkat [2] | XPO1 inhibitory activity against Jurkat XPO1^C528S, in words [2] | IC50 [2] | IC50 (K-562 cells)
O=C(/C=C/c1cncnc1)c1ccc2ccccc2c1 [Compound 9, (E)-1-(Naphthalen-2-yl)-3-(pyrimidin-5-yl)prop-2-en-1-one] | RanBP1 accumulated in the nucleus | 2200 ± 30 nM | 5- to 30 fold | single digit µM IC50 values | 2.4 ± 0.2 µM | 2500 nM and 2460 nM | 2100 ± 100 nM | 2300 ± 200 nM | 2100 ± 500 nM | 2000 ± 500 nM | 175 to 177 °C | its nuclear export was not inhibited | lost their inhibitory activity | > 5 µM | 1.8 ± 0.08 µM
COc1cc(OC)cc(C(=O)/C=C/c2cncnc2)c1 [Compound 10, (E)-1-(3′,5′-Dimethoxyphenyl)-3-(pyrimidin-5′’-yl)prop-2-en-1-one] | RanBP1 accumulated in the nucleus | 300 ± 300 nM | 5- to 30 fold | single digit µM IC50 values | 4.7 ± 1.7 µM | 550 ± 190 nM | 3500 ± 1500 nM | 2100 ± 200 nM | 1500 ± 200 nM | 2200 ± 300 nM | 184 to 185 °C | its nuclear export was not inhibited | lost their inhibitory activity | > 5 µM | 7.2 ± 1.9 µM

Reference: article PMC8621101, “Inhibition of XPO-1 Mediated Nuclear Export through the Michael-Acceptor Character of Chalcones” (Pharmaceuticals, 2021)
